Key:
[1] = Estimated margin of safety for topical use; conditions: assuming absorbed daily dosage of 0.020 μg/kg/day; relative to no-observable-adverse-effect dose in long-term laboratory toxicity tests; conservatively estimated
From the text: When absorbed in the body, is also metabolized into [+]fluprostenol. Based on extensive studies comparing the chemical structures, ocular and dermal absorption, metabolism, potency at the biological target site, toxicological and pharmacological of PGF2α analogs and derivatives, such as bimatoprost and travoprost, the inventor believes that the compound of Formula I, in particular the 5-Heptenamide, has much more balanced and favorable profiles of safety and efficacy, especially for long term chronic application to the skin. […] Assuming an absorbed daily dosage of 0.020 μg/kg/day, due to tightness of the outmost keratinized skin layer (the stratum corneum) which causes percutaneous permeability of most drugs 100-1000 times less than through the conjunctiva (Urtti & Salminen (1993) Survey of Opthalmology 37:435-456) and the lower hydrolysis rate of the 5-Heptenamide than travoprost, the margin of safety for 5-Heptenamide is conservatively estimated to be about 71,000, which means normal use of the composition delivers a dose that is less than about one 71,000th the no-observable-adverse-effect dose in long-term laboratory toxicity tests.
Traditionally, a margin of safety of 100 (10 for interspecies extrapolation, and 10 for […]) is considered adequate. […]

[2] = Metabolic conversion to the acid form [+]fluprostenol once absorbed in the body; assay type: in vivo, mammal; conditions: assessed by comparison of PGF2α analogs
From the text: In particular, the 5-Heptenamide administered to a mammal can be metabolized to produce an acid form which is a single isomer of fluprostenol, [+]fluprostenol having the structure of
Since the compound of Formula I is an amide derivative of a PGF2α analog, once absorbed, hydrolysis by enzymes in the body converts the amide back to the biologically active carboxylic acid. In particular, the 5-Heptenamide can be metabolized to [+]fluprostenol which then binds to the prostaglandin receptor with high affinity and has reduced side effects such as eye irritation and hyperemia (excess blood in vessels supplying the eye).
When absorbed in the body, is also metabolized into [+]fluprostenol. Based on extensive studies comparing the chemical structures, ocular and dermal absorption, metabolism, potency at the biological target site, toxicological and pharmacological of PGF2α analogs and derivatives, such as bimatoprost and travoprost, the inventor believes that the compound of Formula I, in particular the 5-Heptenamide, has much more balanced and favorable profiles of safety and efficacy, especially for long term chronic application to the skin. […]

SMILES | margin of safety [1] | conversion to [+]fluprostenol (acid form) [2]
CCNC(=O)CCC/C=C\C[C@@H]1[C@H](/C=C/[C@@H](O)COc2cccc(C(F)(F)F)c2)[C@H](O)C[C@@H]1O (relative stereo) [5-Heptenamide, 5-Heptenamide, 7-(3,5-dihydroxy-2-(3-hydroxy-4-(3-(trifluoromethyl)phenoxy)-1-butenyl)cyclopentyl)-, N-ethyl, (1R-(1alpha(Z), 2beta(1E,3R*), 3alpha, 5alpha)] | about 71,000 | not as quantitatively converted to the acid form
CC(C)OC(=O)CCC/C=C\C[C@@H]1[C@@H](/C=C/[C@@H](O)COc2cccc(C(F)(F)F)c2)[C@H](O)C[C@@H]1O [travoprost, Travoprost, reference compound] |  | essentially completely converted
